Data from patent publication US20240208988A1, “Alstonine Derivatives and Salts Thereof” (priority 2021, published 2024).
Entries after “also recorded” stand apart in the source; their conditions may differ. Counter-ions that a name gives are not always drawn.

What was measured:
Zebrafish (Danio rerio) [1] = test: Social interaction test in zebrafish exposed to MK-801; type: in vivo; details: for Social Interaction Test: Time immobile: 20 min drug pre-exposure, then 20 min MK-801 5 μM or water; for total distance traveled in the social interaction test / time spent in the interaction zone (social interaction), effect of the substance itself: main effect; for total distance traveled in the social interaction test: FIG. 3; for time spent in the interaction zone (social interaction), effect of the substance itself: two-way ANOVA, Bonferroni post hoc; for number of crossings in the social interaction test: main or interaction effect with MK-801, FIG. 4; for pre-exposure concentration at which MK-801 increased the number of crossings (Bonferroni post hoc): social interaction test, FIG. 4
Method: (§1) Here, the ability of alstonine salts to reverse schizophrenia-like symptoms produced by MK-801 in zebrafish was evaluated. The atypical antipsychotic olanzapine was used as a comparison.
(§2) Experiments were performed using male and female (50:50 ratio) short-fin wild-type zebrafish (4-month-old, 300-500 mg). Adult animals were obtained from a local commercial supplier (Delphis, RS, Brazil). The animals were maintained at Instituto de Ciências Básicas de Saúde in a light/dark cycle of 14/10 h with lights on at 7:00 a.m. for at least two weeks before tests. Fish were kept in 40-L (30×46×33 cm) unenriched glass tanks with non-chlorinated water at a maximum density of five animals per liter. Tank water satisfied the controlled conditions required for zebrafish (26±2° C.; pH 7.0±0.3; dissolved oxygen at 7.0±0.4 mg/L; total ammonia at <0.01 mg/L; total hardness at 5.8 mg/L; alkalinity at 22 mg/L CaCO3; conductivity of 1,500-1,600 μS/cm) and was constantly filtered by mechanical, biological, and chemical filtration systems. Food was provided twice a day as commercial flake food (Poytara®, SP, Brazil) plus brine shrimp (Artemia salina). The sex of the animals was confirmed after euthanasia by dissecting and analyzing the gonads. For all experiments, no sex effects were observed, so data was pooled together. Animals were euthanized by hypothermic shock according to the AVMA Guidelines for the Euthanasia of Animals (Leary and Johnson, 2020).
(§3) Olanzapine and MK-801 (dizocilpine) were purchased from Sigma-Aldrich (St. Louis, MO, USA). Alstonine hydrochloride and alstonine hydrobromide were prepared as described herein. MK-801 and either olanzapine or alstonine salt were dissolved in distilled water; alstonine salt stock solutions were sonicated in an ultrasonic bath. MK-801 solutions were freshly prepared, while alstonine salt stock solutions were kept refrigerated for up to five days. Exposure solutions were renovated halfway through the experiment, with a maximum of four fish exposed to the same solution.
(§4) Different sets of animals were used for each experiment, totaling 240 zebrafish in the study (plus 80 zebrafish serving as stimulus animals). Animals were individually exposed to water, olanzapine, or alstonine salt solutions at 2.5, 5, or 10 mg/L in 500-mL beakers containing 200-mL solution for 20 min. These concentrations were extrapolated from mice studies. Fish were then transferred to another beaker containing either water or MK-801 at 5 μM and remained there for another 20 minutes.
The protocol for the social interaction test in zebrafish followed the method described by Benvenutti et al. (2021) Journal of Neuroscience Research 00: 1-16. After exposure, animals were placed for 7 min in a tank (30×10×15 cm) flanked by two identical tanks (15×10×13 cm) either empty (neutral stimulus) or containing 10 unknown zebrafish (social stimulus). All three tanks were filled with water in standard conditions at a level of 10 cm. The position of the social stimulus (right or left) was counterbalanced throughout the tests. The water in the test tanks was changed between every animal. To assess social behavior, the test apparatus was virtually divided into three vertical zones (interaction, middle, and neutral). Animals were habituated to the apparatus for 2 min and then analyzed for the last 5 min. Videos were recorded from the front view and time spent in the interaction zone was quantified as a proxy for social interaction. Additionally, total distance traveled, number of crossings between the vertical zones of the tank and immobility time were quantified as secondary locomotor parameters. All outcomes were automatically scored using ANY-Maze software (Stoelting Co., Wood Dale, IL, USA).
GraphPad Prism 8 (version 8.4.3) for macOS was used to run the statistical analyses and plot the results. No animals were excluded, except for two data points in the open tank test due to a failure in video acquisition. […]

Zebrafish (Danio rerio) [2] = test: Open tank test in zebrafish exposed to MK-801; type: in vivo; details: for total distance in the open tank test: FIG. 7; for absolute turn angle in the open tank test: FIG. 8; for number of clockwise rotations in the open tank test: FIG. 9; for time spent immobile in the open tank test: for pretreatments: effect on the MK-801-induced increase, FIG. 10; for Open Tank Test: Absolute turn angle / Open Tank Test: Time immobile / Open Tank Test: Clockwise rotations / Open Tank Test: Total distance: immediately after social interaction test, 10 min; for Open Tank Test: Clockwise rotations / Open Tank Test: Total distance: bracket = kind of effect and concentration (mg/L)
Method: as §1, §2, §3, §4
The protocol for the open tank test followed the method described by Benvenutti et al. (2021) Journal of Neuroscience Research 00: 1-16. Immediately after the social interaction test, animals were placed in the center of the open tank arena and recorded for 10 min. The apparatus consisted of a white circular arena (24 cm in diameter and 8 cm in height, 2 cm water level). The apparatus format and the acquisition of videos from the top view allows the evaluation of locomotor parameters related to stereotypic behavior (circular movements and absolute turn angle). The water was changed between every animal. The following outcomes were automatically scored using ANY-Maze software (Stoelting Co., Wood Dale, IL, USA): total distance traveled, absolute turn angle, number of clockwise rotations, and immobility time.
GraphPad Prism 8 (version 8.4.3) for macOS was used to run the statistical analyses and plot the results. No animals were excluded, except for two data points in the open tank test due to a failure in video acquisition. Data were analyzed by two-way ANOVA, with alstonine salt or olanzapine pretreatment (Drug_1) and MK-801 treatment (Drug_2) as the main factors. Bonferroni post hoc test was applied as appropriate. The significant level was set at p<0.05. Data were expressed as mean standard deviation.

rodents = details: acute administration; literature data; cited from earlier work
mice = details: cited from earlier work
dopamine (DA) uptake = details: mouse striatal synaptosomes (Linck et al. 2015); cited from earlier work
[3] = test system: D1, D2, and 5-HT2A receptors; details: cortex membranes; preliminary binding studies (Costa-Campos et al., 1998); cited from earlier work

Row | SMILES | Social Interaction Test: Time immobile (Zebrafish (Danio rerio) [1]) | total distance traveled in the social interaction test (Zebrafish (Danio rerio) [1]) | number of crossings in the social interaction test (Zebrafish (Danio rerio) [1]) | total distance in the open tank test (Zebrafish (Danio rerio) [2]) | absolute turn angle in the open tank test (Zebrafish (Danio rerio) [2]) | number of clockwise rotations in the open tank test (Zebrafish (Danio rerio) [2]) | time spent immobile in the open tank test (Zebrafish (Danio rerio) [2]) | Open Tank Test: Absolute turn angle (Zebrafish (Danio rerio) [2]) | Open Tank Test: Time immobile (Zebrafish (Danio rerio) [2]) | Open Tank Test: Clockwise rotations (Zebrafish (Danio rerio) [2]) | Open Tank Test: Total distance (Zebrafish (Danio rerio) [2]) | pre-exposure concentration at which MK-801 increased the number of crossings (Bonferroni post hoc) (Zebrafish (Danio rerio) [1]) [mg/L] | also measured
1 | C[C@]12N[C@H](Cc3ccccc31)c1ccccc12 [MK-801, dizocilpine, reference compound] | = | increased the total distance traveled relative to controls | had no effect on the number of crossings | decreased the total distance relative to controls | decreased the absolute turn angle relative to controls | decreased the number of clockwise rotations relative to controls | increased the time spent immobile | ↓ | ↑ | ↓ | ↓ |  | Social Interaction Test: Crossings (Zebrafish (Danio rerio) [1]; Ctrl vs. MK within pretreatment level, bracket = concentration (mg/L)): =; time spent immobile in the social interaction test (Zebrafish (Danio rerio) [1]; FIG. 5): tended to decrease the time spent immobile; time spent in the interaction zone (social interaction), effect of the substance itself (Zebrafish (Danio rerio) [1]; FIG. 2): decreased social preference
2 | CCN1CCCC1CNC(=O)c1cc(S(N)(=O)=O)ccc1OC (stereo not shown) [Sulpiride] |  |  |  |  |  |  |  |  |  |  |  |  | prevention of social interaction deficits caused by MK-801 (rodents): acutely prevents the deficits caused by MK-801
3 | COC(=O)C1=CO[C@@H](C)[C@H]2C[n+]3ccc4c([nH]c5ccccc54)c3C[C@H]12.[Br-] [alstonine hydrobromide] |  | had no such effect | significant interaction | did not have an effect | no main effects for Drug_1 or interaction effects were observed | did not have a main effect or an interaction effect | did not have an effect | N.E.^1 | N.E.^1 | N.E.^1 | N.E.^1 | 10 | time spent immobile in the social interaction test (Zebrafish (Danio rerio) [1]; FIG. 5, hydrobromide): significant interaction; time spent immobile in the social interaction test (Zebrafish (Danio rerio) [1]; FIG. 5, listed as alstonine bromide, hydrobromide): reduced the effects of MK-801 at the highest concentrations tested; time spent in the interaction zone (social interaction), effect of the substance itself (Zebrafish (Danio rerio) [1]; FIG. 2, listed as alstonine bromide, hydrobromide): none of the concentrations decreased social isolation; also recorded: did not; prevention of the MK-801-induced decrease of social interaction time (Zebrafish (Danio rerio) [1]; pretreatment 20 min before MK-801 5 μM, FIG. 2): did not prevent the effects of MK-801
4 | COC(=O)C1=CO[C@@H](C)[C@@H]2Cn3ccc4c5ccccc5nc-4c3C[C@H]12 [alstonine hydrochloride] | N.E.^1 | had no such effect | significant interaction | did not have an effect | no main effects for Drug_1 or interaction effects were observed | did not have a main effect or an interaction effect | did not have an effect | N.E.^1 | N.E.^1 | N.E.^1 | N.E.^1 | 5 | time spent in the interaction zone (social interaction), effect of the substance itself (Zebrafish (Danio rerio) [1]; FIG. 2, hydrochloride): animals exposed to 5 and 10 mg/L alstonine hydrochloride spent less time in the interaction zone as compared to controls; also recorded: decreased the interaction time
5 | COC(=O)C1=CO[C@@H](C)[C@@H]2Cn3ccc4c5ccccc5nc-4c3C[C@H]12 [alstonine] |  |  |  |  |  |  |  |  |  |  |  |  | antipsychotic profile in mice models (mice; 0.5-1.0 mg/kg ip): antipsychotic properties; time to significant effects after intraperitoneal administration (mice; mice, ip): ≤ 30 min; effect on DA uptake (dopamine (DA) uptake): increasing DA uptake; effect on [3H]SCH23390 or [3H]Spiperone binding [3]: does not affect
6 | Cc1cc2c(s1)Nc1ccccc1N=C2N1CCN(C)CC1 [olanzapine, reference compound] | N.E.^1 |  |  |  |  |  |  | N.E.^1 |  |  |  |  | 
